The results in this text go back to patent US9969763B2, “1,2,3-triazole-tethered carbohydrate-di and tri lipidated cysteine conjugates useful as vaccine adjuvants and process for preparation thereof” (Council of Scientific and Industrial Research, priority 2015, dated 2018).

The test system of data set [1] is extracellular markers CD4, CD8, CD80, CD86, CD40. Put plainly: Immunophenotyping, staining for extracellular markers (flow cytometry). Type of data set: cell-based. As to the method: 2.2.5 Immunophenotyping—Staining for extracellular markers: Staining was as per the manufacturer's protocol and run on a BD FACSVerse flow cytometer (cat nos. 557596, 553047, 560016 and 553723; BD Biosciences, USA). Compensation was established using BD Biosciences compensation beads. Post acquisition flow cytometry analysis was performed using FACS Suite software and data were represent in the mean fluorescence intensity values.
On the technique in general: Flow cytometry measures light scatter and fluorescence of single cells or particles in a stream.

A further data set concerns rat RBCs. Type of data set: cell-based. As to conditions: red cells of rat. As to the method:
2.2.7 Hemolytic assay: Different concentration of test compounds were tested with fixed volume concentration of rat RBCs. After incubation for 30 min the percentage of hemolysis was determined by comparing the absorbance (k=540 nm) of the supernatant with that of distilled water as positive control.

The subject of data set [2] is cytokines IL-2, IL-12, IFN-γ, TNF-α, IL-10, IL-6. Put plainly: Cytokine expression on immunization with HBsAg (ELISA). The conditions noted are these: HBsAg antigen. The class given is in vivo, BALB/c mice. As to the method:
(§1) 1.2.2 Cytokine expression on immunization: ELISA was carried out by Opti Elisa Kit (cat no. 560485, BD biosciences, USA). Briefly, 96-Well plates were coated with capture antibody dissolved in coating buffer. Wells were blocked with PBS containing 0.05% Tween-20 for 1h at RT. After blocking, 100 μL/well of supernatant was added and incubated for overnight at 4° C. After washing, biotinylated secondary antibody was added along with enzyme. Plates were incubated for 1h at RT. Then plates were washed and substrate solution was added. The reaction was stopped and the absorbance was measured at 450 nm in ELISA reader (BioTek-Elx800).
(§2) Male BALB/c mice were immunized with different groups according to various concentrations of (conjugates)preferably 2 to 80 μg/dose, more preferably 6 to 50 μg/dose, most preferably 8 to 40 μg/dose, along with PBS and HBsAg antigen control. A booster dose was given on 14th day and sacrificed 2 weeks after booster.
2.2.2 Cytokine expression on immunization: Cytokine expression was measured by the same method as described in the Example 13 except that HBsAg antigen.
For orientation: In an ELISA, binding on a coated surface is turned into a signal by an enzyme label.

A further data set addresses T1, Human TLR-2 (Homo sapiens, UniProt O60603).
T1 construct: host or cells: HEK-Blue hTLR2 cells (HEK293-derived reporter line)
Briefly: Human TLR-2 reporter gene assay (NF-κB induction, SEAP). The class given is cell-based. As to conditions: HEK-Blue hTLR2 cells, 24 h. As to the method: 2.2.4 Human TLR-2 reporter gene assays (NF-κB induction): The assay was performed as per the manufacturer's instructions. HEK-Blue™ hTLR2 cells (cat no. hkb-htlr2, Invivogen, USA, 25,000 cells per well) were harvested in HEK-Blue™ selection medium containing normocin treated with the compounds and the plate were incubated at 37° C. in 5% CO2 for 24 h. SEAP (secreted embryonic alkaline phosphatase) can be observed with naked eye and determined using a spectrophotometer at 620-655 nm.
A general note: Reporter assays use an easily measured gene product as a stand-in for the process of interest.

Data set [3] deals with Splenocytes. Put plainly: OVA stimulated splenocyte proliferation (MTT) in immunized mice. The class given is in vivo, BALB/c mice. The conditions noted are these: OVA antigen; mice immunized s.c., conjugates 2-80 μg, booster 14th day; MTT after 48 h. As to the method:
(§3) 13.1 Preparation and immunization of the vaccine: Male BALB/c mice (Procured from laboratory animal facility of National Institute of Nutrition, Hyderabad, IAEC No. IICT/Bio/fox/PG/1/02/2013) were immunized subcutaneously with different groups according to various concentrations of conjugates covered in examples 1-12, preferably 2 to 80 μg/dose, more preferably 6 to 50 μg/dose, most preferably 8 to 40 μg/dose, along with PBS (car no. TS1006, Himedia)and antigen control. A booster dose was given on 14th day and sacrificed 2 weeks after booster.
(§4) 1.2.1 Proliferation of immune cells: Splenocytes were seeded into 96 well flat bottom microtiter plates having 1×10^5 cells/well in complete RPMI-1640 medium (cat no. AT028-1L, Himedia). Plates were incubated at 37° C., with 5% CO2 incubator. After 48 h of incubation 20 μl of Triazolyl blue Tetrazolium Bromide (MTT) (cat no. M2128, Sigma-Aldrich. St. Louis, Mo.) solution (5 mg/mL) was added to each well, incubated for next 4 h. Untransformed MTT was removed from each well by aspirating the supernatant (180 μL)and replaced with DMSO (Sigma-Aldrich, St. Louis, Mo.). The absorbance was read at 630 nm after 15 min.
All triazolyl adjuvant conjugates induced splenocyte proliferation responses at the dose of 2-80 μg.

The nature of the next data set: in vitro. Type of data set: cell-based. As to conditions: rat, NRK-49F rat kidney cells. As to the method: 2.2.6 In vitro cytotoxicity evaluation by MTT assay: Rat kidney cell line NRK-49F (NCCS, Pune) was exposed to varying doses of test compounds in the range of […], to determine the toxicity after 48 h of incubation. The colorimetric MTT assay was used to evaluate cell viability which is determined based on reduction of MTT to blue formazan crystals by the mitochondrial succinate dehydrogenase enzymes of viable cells.

For another data set, the system named is OVA antigen. Briefly: Antibody titre against OVA antigen and isotypes (ELISA). Type of data set: in vivo, BALB/c mice. The conditions noted are these: 28th day; for IgG titer: serum anti-OVA; for IgG1 titer / IgG 2a titer: serum, OVA immunized mice. How it is done:
as §3
(§5) 1.2.2 Antibody titre against OVA antigen: From the immunized mice retro-orbital sampling or retro-orbital blood was collected on 14th and 28th day before sacrifice. Serum was separated by centrifugation at 12,500 rpm for 5 min. Transferred to a clean centrifuge tube and store at −80 until used. The plates were coated with OVA (1 μg/well) in carbonate buffer. Plates were incubated at 4° C., overnight. They were then washed 3 times with PBS/Tween, and non-specific binding sites were blocked by adding 200 μl of blocking solution. Plates were incubated at room temperature for 1 h. Then 3 times wash is done, diluted standards and samples to desired concentrations in blocking solution were added to the plates. Incubate at 37° C. for 1 h or at 4° C., overnight. Plates were washed 3 times with PBS/Tween. Avidin-Horseradish Peroxidase (Av-HRP, cat no. 45210, Biolegend, USA) was diluted and added. Incubated at room temperature for 30 min. Plates were washed 3 times with PBS/Tween. Substrate was added, mix equal volumes of TMB Reagent A and B(cat no. 421101, Biolegend, USA) immediately prior to use. Plates were incubated at room temperature (4-30 min) for color development. Color reaction was stopped by adding 50 μl of stop solution. Optical density (OD) was read at 450 nm.
(§6) 1.2.3 Isotypes of antigen specific antibody: The plates were coated with diluted unlabeled capture antibody to a final concentration of 0.5-8 μg/ml. Plates were incubated at 4° C. overnight. They were then washed 3 times with PBS/Tween, and non-specific binding sites were blocked by adding 200 μl of blocking solution. Plates were incubated at room temperature for 1 h. Washing is done thrice, diluted standards and samples to desire concentrations in blocking solution were added to the plates. Incubate at room temperature for 2-4 h or at 4° C., overnight. Plates were washed 3 times with PBS/Tween. Detection antibodies were added 0.25-2 μg/ml in blocking buffer, followed by incubation at room temperature for 1 h. Plates were washed 3 times with PBS/Tween. Avidin-Horseradish Peroxidase (Av-HRP) was diluted and added. Incubated at room temperature for 30 min. Plates were washed 5 times with PBS/Tween. Substrate was added, mix equal volumes of TMB Reagent A and B immediately prior to use. Plates were incubated at room temperature (0.4-30 min) for color development. Color reaction was stopped by adding 50 μl of stop solution. Optical density (OD) was read at 450 nm.
IgG1 and IgG2a were measured by sandwich ELISA.

In data set [4] the test system is cytokines IL-2, IL-12, IFN-γ, TNF-α, IL-10, IL-6. Briefly: Cytokine expression on immunization with OVA (ELISA). The class given is in vivo, BALB/c mice. The conditions noted are these: OVA antigen. As to the method: as §3, §1
For data set [5], the system named is Splenocytes. Briefly: HBsAg stimulated splenocyte proliferation in immunized mice. As to conditions: HBsAg antigen; conjugates 2-80 μg. Type of data set: in vivo, BALB/c mice. How it is done:
as §4
Vaccine was formulated with Hepatitis B antigen (HBsAg, cat. No HBS-870-c, ProspecBio, Israel))alone or with various adjuvants like Pam3CSK4 and their analogues. The adjuvanticity induced by each of the vaccine is determined by antibody titre, cytokine production and proliferation of immune cells.
as §2
2.2.1 Proliferation of immune cells: Splenocyte proliferation was measured by the same method as described in Example 13 except that HBsAg antigen. […]

For the next data set, the system named is HBsAg antigen. Briefly: Antibody titre against HBsAg antigen (ELISA). The conditions noted are these: 28th day; for IgG titer: serum anti-HBsAg; for IgG1 titer / IgG 2a titer: serum, HBsAg immunized mice. Type of data set: in vivo, BALB/c mice. As to the method:
as §5, §6, §2
2.2.3 Antibody titre against HBsAg antigen: Antibody titer was determined by the same method as described in the Example 13 except that HBsAg antigen.
Antibody titres IgG, IgG1 and IgG2a were measured by sandwich ELISA.

As usually defined, the viability is a per cent measure of how many cells are alive, often set against a control.

Where a SMILES comes first, the peptide text is derived from it. The star is where a group is joined. X1 = CCCCCCCCCCCCCCCC(=O)OCC(C*)OC(=O)CCCCCCCCCCCCCCC; Palmitoyl = CCCCCCCCCCCCCCCC(=O)*

T1 sequence (O60603 21-784): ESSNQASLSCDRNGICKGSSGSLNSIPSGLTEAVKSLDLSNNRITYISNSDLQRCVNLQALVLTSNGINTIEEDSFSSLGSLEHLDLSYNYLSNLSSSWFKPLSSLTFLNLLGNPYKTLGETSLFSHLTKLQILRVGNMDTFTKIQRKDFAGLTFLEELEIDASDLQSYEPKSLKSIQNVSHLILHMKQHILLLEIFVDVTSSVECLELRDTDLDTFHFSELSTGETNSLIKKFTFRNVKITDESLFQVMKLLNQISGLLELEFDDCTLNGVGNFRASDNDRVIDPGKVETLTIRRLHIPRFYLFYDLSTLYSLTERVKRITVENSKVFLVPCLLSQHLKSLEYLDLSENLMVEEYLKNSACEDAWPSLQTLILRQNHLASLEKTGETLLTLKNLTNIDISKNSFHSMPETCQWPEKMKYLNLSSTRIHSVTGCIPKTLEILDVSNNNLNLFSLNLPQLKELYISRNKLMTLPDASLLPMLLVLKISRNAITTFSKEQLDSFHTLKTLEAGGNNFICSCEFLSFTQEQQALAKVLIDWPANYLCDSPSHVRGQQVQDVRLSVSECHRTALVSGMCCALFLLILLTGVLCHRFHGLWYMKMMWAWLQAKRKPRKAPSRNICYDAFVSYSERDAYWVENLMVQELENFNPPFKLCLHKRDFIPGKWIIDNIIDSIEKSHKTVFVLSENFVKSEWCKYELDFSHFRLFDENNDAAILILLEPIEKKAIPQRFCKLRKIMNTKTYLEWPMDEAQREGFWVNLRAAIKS

As to `CCCCCCCCCCCCCCCC(=O)N[C@@H](CSCC(COC(=O)CCCCCCCCCCCCCCC)OC(=O)CCCCCCCCCCCCCCC)C(=O)N[C@@H](CO)C(=O)N[C@@H](CCCCN)C(=O)N[C@@H](CCCCN)C(=O)N[C@@H](CCCCN)C(=O)N[C@@H](CCCCN)C(=O)O` (stereo partly shown) [Standard (VacciGrade Pam3Cys) control] (Palmitoyl-C(X1)SKKKK-OH; N-terminus and C-terminus assumed), in data set [1], the “Immunophenotyping (MFI) CD4” value is recorded as 1400-3000 MFI, the “Immunophenotyping (MFI) CD8” value is recorded as 2000-4000 MFI, the “Immunophenotyping (MFI) CD40” value is on record as 1000-2500 MFI and the “Immunophenotyping (MFI) CD80” value is on record as 1600-2500 MFI. In addition, the “Immunophenotyping (MFI) CD86” value in data set [1] is 1200-2000 MFI. Also, the “% Hemolysis” value in the data set on rat RBCs is on record as 2-5%. Moreover, in [2], the “Serum cytokines IFN-γ” value lay within 250 to 325 pg/mL, the “Serum cytokines IL-2” value lay in the range of 250 to 300 pg/mL, the “Serum cytokines IL-6” value fell in the range of 250 to 295 pg/mL and the “Serum cytokines IL-10” value lay in the range of 325 to 475 pg/mL. Besides, in data set [2], the “Serum cytokines IL-12” value was 150 to 250 pg/mL and the “Serum cytokines TNF-α” value fell in the range of 275 to 400 pg/mL. In addition, the “TLR Ligand activity, SEAP Absorbance (655 nm)” value at Human TLR-2 is recorded as 1.2-2. In addition, the Splenocyte proliferation in the data set with Splenocytes [3] was 200-350. Moreover, the viability at 48 h in “in vitro” lay in the range of 95 to 100%. Moreover, in the data set with OVA antigen, the IgG titer is 102400-819200, the IgG1 titer was 102400-1638400 and the “IgG 2a titer” value is 102400-3276800. Also, in data set [4], the “Serum cytokines IFN-γ” value is 100 to 140 pg/mL, the “Serum cytokines IL-2” value was 100 to 150 pg/mL, the “Serum cytokines IL-6” value was 100 to 120 pg/mL and the “Serum cytokines IL-10” value was in the range of 180 to 220 pg/mL. For the same molecule, in data set [4], the “Serum cytokines IL-12” value was in the range of 80 to 140 pg/mL and the “Serum cytokines TNF-α” value lay within 150 to 200 pg/mL. For the same molecule, in the data set on Splenocytes [5], the Splenocyte proliferation is 250-500. For the same molecule, in the data set on HBsAg antigen, the IgG titer is reported as 204800-819200, the IgG1 titer is recorded as 102400-409600 and the “IgG 2a titer” value was 204800-3276800.

B1: OVA control: experimental weak antigen ovalbumin (cat no. A5503, Sigma-Aldrich) given alone as antigen control (protein, UniProt P01012 2-386, looked up)
Ovalbumin: GSIGAASMEFCFDVFKELKVHHANENIFYCPIAIMSALAMVYLGAKDSTRTQINKVVRFDKLPGFGDSIEAQCGTSVNVHSSLRDILNQITKPNDVYSFSLASRLYAEERYPILPEYLQCVKELYRGGLEPINFQTAADQARELINSWVESQTNGIIRNVLQPSSVDSQTAMVLVNAIVFKGLWEKAFKDEDTQAMPFRVTEQESKPVQMMYQIGLFRVASMASEKMKILELPFASGTMSMLVLLPDEVSGLEQLESIINFEKLTEWTSSNVMEERKIKVYLPRMKMEEKYNLTSVLMAMGITDVFSSSANLSGISSAESLKISQAVHAAHAEINEAGREVVGSAEAGVDAASVSEEFRADHPFLFCIKHIATNAVLFFGRCVSP
In the case of B1, in the data set on OVA antigen, the IgG titer is on record as 6400-12800, the IgG1 titer was 6400-25600 and the “IgG 2a titer” value is 6400-12800. In the data set with HBsAg antigen, the IgG titer was 12800-51200, the IgG1 titer was 12800-102400 and the “IgG 2a titer” value is 12800-51200.
